According to patent US20230331675A1, “AROMATIC ETHYLENE COMPOUND AND PREPARATION METHOD THEREFOR, AND INTERMEDIATE, PHARMACEUTICAL COMPOSITION, AND APPLICATION THEREOF” (GUANGZHOU MAXINOVEL PHARMACEUTICALS CO., LTD., priority 2020, published 2023):

Target: PD-1/PD-L1 (Homo sapiens (Human), UniProt Q9NZQ7)
Test: Homogeneous time-resolved fluorescence (HTRF) binding assay
Details: CisBio kit, read-out: IC50 of compounds binding to PD-1/PD-L1
Text: Effect embodiment 1: Homogenouse time-resolved fluorescence
Homogeneous time-resolved fluorescence (HTRF) binding assay was used to determine the binding ability of the compound of the present disclosure to PD-1/PD-L1.
The purchased kit (CisBio, #64CUS000C-1) contained reagents required for assays such as PD-1, PD-L1, anti-tag1-Eu, Anti-tag2-XL665, dilute buffer, and detection buffer.
1. The compound was formulated to 10 concentrations with a 3-fold gradient with 100% DMSO.
2. The DMSO solution of the compound was added to the dilute buffer, mixed thoroughly, then transferred to a 96-well plate.
3. PD-L1 was diluted with dilute buffer, then added to the above 96-well plate.
4. PD-1 was diluted with dilute buffer and added to the above 96-well plate, which was then incubated at room temperature for 30 minutes.
5. A portion of anti-tag1-Eu and a portion of anti-tag2-XL665 were added to the detection buffer, mixed thoroughly and transferred to the above 96-well plate.
6. The mixture in the above 96-well plate was incubated at room temperature for 1 to 24 hours.
7. HTRF values were read with Envision.

Chain of PD-1/PD-L1 (Q9NZQ7 19-238): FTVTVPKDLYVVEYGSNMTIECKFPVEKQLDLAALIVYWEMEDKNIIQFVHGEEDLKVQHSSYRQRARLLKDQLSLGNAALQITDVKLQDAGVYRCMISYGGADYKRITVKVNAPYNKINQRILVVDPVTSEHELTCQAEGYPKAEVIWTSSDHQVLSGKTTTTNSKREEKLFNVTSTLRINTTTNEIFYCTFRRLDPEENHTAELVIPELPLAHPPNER

IC50 [µM]	Compound
0.16	[2H]C([2H])([2H])OCc1cc(/C=C/c2cccc(-c3ccccc3)c2C#N)c(C(F)(F)F)cc1CN1CCOC[C@H]1C(=O)O [Compound 54, (S,E)-4-(4-(2-(2-Cyano-[1,1′-biphenyl]-3-yl)vinyl)-2-((methoxy-d3)methyl)-5-trifluoromethylbenzyl)morpholine-3-carboxylic acid]
0.00068	COc1cc(/C=C/c2cccc(-c3ccccc3)c2Cl)c(C(F)(F)F)cc1CN1CCCC[C@H]1C(=O)O [Compound 71, (S,E)-1-(4-(2-(2-Chloro-[1,1′-biphenyl]-3-yl)vinyl)-2-methoxy-5-trifluoromethylbenzyl)piperidine-2-carboxylic acid]
0.048	COc1cc(/C(F)=C/c2cccc(-c3ccccc3)c2C)c(C(F)(F)F)cc1CNCCO [Compound 65, (Z)-2-((4-(1-Fluoro-2-(2-methyl-[1,1′-biphenyl]-3-yl)vinyl)-2-methoxy-5-trifluoromethylbenzyl)amino)-1-ethanol]
0.046	Cc1cc(/C=C/c2cccc(-c3ccccc3)c2C#N)c(Cl)cc1CN1CCNC[C@H]1C(=O)O [Compound 13, (S,E)-1-(5-Chloro-4-(2-(2-cyano-[1,1′-biphenyl]-3-yl)vinyl)-2-methylbenzyl)piperazine-2-carboxylic acid]
0.0068	COc1cc(/C=C/c2cccc(-c3ccccc3)c2C)c(Cl)cc1CN1CCCC[C@H]1C(=O)O [Compound 58, (S,E)-1-(5-Chloro-2-methoxy-4-(2-(2-methyl-[1,1′-biphenyl]-3-yl)vinyl)benzyl)piperidine-2-carboxylic acid]
0.26	COc1cc(/C=C(\Br)c2cccc(-c3ccccc3)c2C)c(C)cc1CNCCO [Compound 69, (Z)-2-((4-(2-Bromo-2-(2-methyl-[1,1′-biphenyl]-3-yl)vinyl)-2-methoxy-5-methylbenzyl)amino)-1-ethanol]
0.0016	Cc1cc(/C=C/c2cccc(-c3ccccc3)c2C#N)c(Cl)cc1CN1CCCC[C@H]1C(=O)O [Compound 8, (S,E)-1-(5-Chloro-4-(2-(2-cyano-[1,1′-biphenyl]-3-yl)vinyl)-2-methylbenzyl)piperidine-2-carboxylic acid]
0.0062	Cc1cc(/C=C/c2cccc(-c3ccccc3)c2C#N)c(Cl)cc1CNCC(=O)O [Compound 19, (E)-(5-Chloro-4-(2-(2-cyano-[1,1′-biphenyl]-3-yl)vinyl)-2-methylbenzyl)glycine]
0.0128	COc1cc(/C(Br)=C/c2cccc(-c3ccccc3)c2C)c(C(F)(F)F)cc1CN1CCCC[C@H]1C(=O)O [Compound 67, (S,Z)-1-(4-(1-Bromo-2-(2-methyl-[1,1′-biphenyl]-3-yl)vinyl)-2-methoxy-5-trifluoromethylbenzyl)piperidine-2-carboxylic acid]
0.062	Cc1cc(/C=C/c2cccc(-c3ccccc3)c2C#N)c(Cl)cc1CN1CCN(C(N)=O)C[C@H]1C(=O)O [Compound 29, (S,E)-4-Carbamoyl-1-(5-chloro-4-(2-(2-cyano-[1,1′-biphenyl]-3-yl)vinyl)-2-methylbenzyl)piperazine-2-carboxylic acid]
0.0068	COCCOc1cc(/C=C/c2cccc(-c3ccccc3)c2C#N)c(C)cc1CN1CCCC[C@H]1C(=O)O [Compound 24, (S,E)-1-(4-(2-(2-Cyano-[1,1′-biphenyl]-3-yl)vinyl)-2-(2-methoxyethoxy)-5-methylbenzyl)piperidine-2-carboxylic acid]
0.169	COc1cc(/C=C(\Br)c2cccc(-c3ccccc3)c2C)c(C)cc1CN1CCCC[C@H]1C(=O)O [Compound 68, (S,Z)-1-(4-(2-Bromo-2-(2-methyl-[1,1′-biphenyl]-3-yl)vinyl)-2-methoxy-5-methylbenzyl)piperidine-2-carboxylic acid]
0.0047	Cc1cc(CN2CCCC[C@H]2C(=O)O)c(OCCO)cc1/C=C/c1cccc(-c2ccccc2)c1C#N [Compound 26]
0.0077	Cc1cc(CN2CCOC[C@H]2C(=O)O)c(OCCO)cc1/C=C/c1cccc(-c2ccccc2)c1C#N [Compound 30, (S,E)-4-(4-(2-(2-Cyano-[1,1′-biphenyl]-3-yl)vinyl)-2-(2-hydroxyethoxy)-5-methylbenzyl)morpholine-3-carboxylic acid]
0.00709	COc1cc(/C=C/c2cccc(-c3ccccc3)c2CF)c(C(F)(F)F)cc1CNCCO [Compound 74, (E)-2-((4-(2-(2-Fluoromethyl-[1,1′-biphenyl]-3-yl)vinyl)-2-methoxy-5-trifluoromethylbenzyl)amino)-1-ethanol]

Further lines, the compound ahead of its results:

Compound	IC50 [µM]
[2H]c1c([2H])c([2H])c(-c2cccc(/C=C/c3cc(OC)c(CN4CCCC[C@H]4C(=O)O)cc3C(F)(F)F)c2C)c([2H])c1[2H] [Compound 61, (S,E)-1-(2-Methoxy-4-(2-(2-methyl-[1,1′-biphenyl]-3-yl-2′,3′,4′,5′,6′-d5)vinyl)-5-trifluoromethylbenzyl)piperidine-2-carboxylic acid]	0.00073
COCCOc1cc(/C=C/c2cccc(-c3ccccc3)c2C#N)c(CN[C@@](C)(CO)C(=O)O)cc1Cl [Compound 35, (S,E)-2-((5-Chloro-2-(2-(2-cyano-[1,1′-biphenyl]-3-yl)vinyl)-4-(2-methoxyethoxy)benzyl)amino)-3-hydroxy-2-methylpropanoic acid]	1.15
COc1cc(/C(F)=C/c2cccc(-c3ccccc3)c2C)c(C(F)(F)F)cc1CN1CCCC[C@H]1C(=O)O [Compound 64, (S,Z)-1-(4-(1-Fluoro-2-(2-methyl-[1,1′-biphenyl]-3-yl)vinyl)2-methoxy-5-trifluoromethylbenzyl)piperidine-2-carboxylic acid]	0.0295
Cc1c(/C=C/c2cc(OCCCF)c(CN3CCCC[C@H]3C(=O)O)cc2C(F)(F)F)cccc1-c1ccccc1 [Compound 86, (S,E)-1-(2-(3-Fluoropropoxy)-4-(2-(2-methyl-[1,1′-biphenyl]-3-yl)vinyl)-5-(trifluoromethyl)benzyl)piperidine-2-carboxylic acid]	0.00358
Cc1cc(/C=C/c2cccc(-c3ccccc3)c2C)c(Cl)cc1CN1CCOC[C@H]1C(=O)O [Compound 22, (S,E)-4-(5-Chloro-2-methyl-4-(2-(2-methyl-[1,1′-biphenyl]-3-yl)vinyl)benzyl)morpholine-3-carboxylic acid]	0.0114
N#Cc1c(/C=C/c2ccc(CN3CCCC[C@H]3C(=O)O)cc2Cl)cccc1-c1ccccc1 [Compound 2, (S,E)-1-(3-Chloro-4-(2-(2-cyano-[1,1′-biphenyl]-3-yl)vinyl)benzyl)piperidine-2-carboxylic acid]	0.0263
[2H]C([2H])([2H])c1c(/C=C/c2cc(CN[C@@](C)(CO)C(=O)O)ccc2C(F)(F)F)cccc1-c1ccccc1 [Compound 55]	0.0295
COCc1cc(/C=C/c2cccc(-c3ccccc3)c2C#N)c(C(F)(F)F)cc1CN1CCCC[C@H]1C(=O)O [Compound 49, (S,E)-1-(4-(2-(2-Cyano-[1,1′-biphenyl]-3-yl)vinyl)-2-(methoxymethyl)-5-trifluoromethylbenzyl)piperidine-2-carboxylic acid]	0.0186
Cc1cc(CN2CCOC[C@H]2C(=O)O)c(C)cc1/C=C/c1cccc(-c2ccccc2)c1C#N [Compound 11, (S,E)-4-(4-(2-(2-Cyano-[1,1′-biphenyl]-3-yl)vinyl)-2,5-dimethylbenzyl)morpholine-3-carboxylic acid]	0.0101
(S,E)-2-((5-Chloro-2-(2-(2-cyano-[1,1′-biphenyl]-3-yl)vinyl)-4-(3-methylsulfonyl)propoxy)benzyl)amino)-3-hydroxy-2-methylpropionic acid [Compound 38]	0.298
Cc1cc(CN2CCCC[C@H]2C(=O)O)c(OCCCCC#N)cc1/C=C/c1cccc(-c2ccccc2)c1C#N [Compound 15, (S,E)-1-(4-(2-(2-Cyano-[1,1′-biphenyl]-3-yl)vinyl)-2-(4-cyanobutoxy)-5-methylbenzyl)piperidine-2-carboxylic acid]	0.0021
CS(=O)(=O)CCCOc1cc(/C=C/c2cccc(-c3ccccc3)c2C#N)c(CN2CCOC[C@H]2C(=O)O)cc1Cl [Compound 37]	> 10
Cc1cc(CN2CCNC[C@H]2C(=O)O)c(OCCCCC#N)cc1/C=C/c1cccc(-c2ccccc2)c1C#N [Compound 18, (S,E)-1-(4-(2-(2-Cyano-[1,1′-biphenyl]-3-yl)vinyl)-2-(4-cyanobutoxy)-5-methylbenzyl)piperazine-2-carboxylic acid]	0.0222
Cc1c(/C=C/c2cc(OCc3ccnc(I)c3)c(CN3CCCC[C@H]3C(=O)O)cc2C(F)(F)F)cccc1-c1ccccc1 [Compound 81, (S,E)-1-(2-((2-Iodopyridin-4-yl)methoxy)-4-(2-(2-methyl-[1,1′-biphenyl]-3-yl)vinyl)-5-(trifluoromethyl)benzyl)piperidine-2-carboxylic acid]	0.00213
Cc1c(/C=C/c2cc(OCc3cncc(I)c3)c(CN3CCCC[C@H]3C(=O)O)cc2C(F)(F)F)cccc1-c1ccccc1 [Compound 82, (S,E)-1-(2-((5-Iodopyridin-3-yl)methoxy)-4-(2-(2-methyl-[1,1′-biphenyl]-3-yl)vinyl)-5-(trifluoromethyl)benzyl)piperidine-2-carboxylic acid]	0.00185
Cc1cc(OCCCCC#N)c(CN2CCCC[C@H]2C(=O)O)cc1/C=C/c1cccc(-c2ccccc2)c1C#N [Compound 39, (S,E)-1-(5-(2-(2-Cyano-[1,1′-biphenyl]-3-yl)vinyl)-2-(4-cyanobutoxy)-4-methylbenzyl)piperidine-2-carboxylic acid]	0.172
